Where two headings read alike, the source gives them in different places.
Tests used:
physchem = format: physicochemical; conditions: solid
Procedure: The storage stability of the present compounds [I] was tested by allowing each test compound to stand under severe conditions (i.e., a temperature of 60° C. and a relative humidity of 75%) for 8 days and then determining its percentage of residue according to a thin-layer densitometric method (Bunseki Kagaku, Vol. 23, No. 9, p. 1016, 1974). More specifically, upon completion of the severe treatment, 100 μg of each test compound was applied to a thin-layer plate and this plate was developed with a chloroform-ethanol mixture (volume ratio 10:1). The thin-layer plate used for this purpose was a TLC Plate Aluminum Oxide 60F254 (manufactured by Merck Co.; 0.25 mm in thickness and 20 cm×20 cm in size), and it was developed over a distance of 15 cm. Then, using a Shimazu Two-wavelength Chromatoscanner CS-910 (manufactured by Shimazu Seisakusho), the resulting spot was analyzed at a wavelength of 300-315 nm.
For purposes of comparison, the percentages of residue of Omeprazole (at a measuring wavelength of 300 nm) and Compounds α and β (at a measuring wavelength of 310 nm) were determined in the same manner as described above and are also shown in Table 1.

(H^+ +K^+) ATPase = target: T1, (H^+ +K^+) ATPase (Sus scrofa, UniProt P19156); experiment: Inhibitory effect on (H^+ +K^+) ATPase; format: biochemical, hog; conditions: at 1 × 10^-3 M; in vitro; read-out: Degree of inhibition, Inhibitory effect on (H^+ + K^+) ATPase
T1 construct: prepared from fresh pieces of the fundus ventriculi of hog stomach; from tissue; host or cells: hog stomach, fundus ventriculi (fresh pieces), prepared by the method of Saccomani et al., J. Biol. Chem. 1976
Procedure: The inhibitory effect of the present compounds [I] on (H^+ +K^+) ATPase was tested by adding each test compound to a solution containing 300-500 μg, on a protein basis, of the enzyme, incubating this reaction mixture at 35°-37° C. for 5-30 minutes, and then determining the residual activity of (H^+ +K^+) ATPase present in the reaction mixture. The test compounds were dissolved in methanol or ethanol in advance and added to the reaction system in such an amount as to give a concentration of 1×10^-3 M. The (H^+ +K^+) ATPase used in this test was prepared from fresh pieces of the fundus ventriculi of hog stomach according to the method of Saccomani et al. (The Journal of Biological Chemistry, Vol. 251, No. 23, p. 7690, 1976). The residual activity of (H^+ +K^+) ATPase was determined by mixing magnesium chloride and potassium chloride with the incubated reaction mixture, adding adenosine triphosphate thereto, incubating this assay mixture 37° C. for 5-15 minutes to effect an enzymic reaction, and colorimetrically determining the liberated inorganic phosphate by use of an ammonium molybdate reagent. The initial concentrations of magnesium chloride, potassium chloride and adenosine triphosphate were adjusted to 2 mM, 20 mM and 2 mM, respectively. Colorimetric determinations were made at a wavelength of 360-400 nm. As a control experiment, the residual activity of (H^+ +K^+) ATPase was determined by repeating the above-described procedure without adding any test compound to the reaction system. In this table, the inhibitory effect is indicated by the degree of inhibition which was obtained by calculating the difference between the measured value obtained in the control experiment and the measured value resulting from the addition of each test compound and expressing this difference as a percentage of the measured value obtained in the control experiment. For purposes of comparison, the inhibitory effect of Omeprazole and Compounds α and β on (H^+ +K^+) ATPase was tested in the same manner as described above and the results thus obtained are also shown in Table 2.

gastric acid secretion = experiment: Inhibitory effect on gastric acid secretion (pylorus ligation); format: in vivo, male Wistar rats; conditions: Rattus norvegicus, po, rats; total acidity of gastric juice 4 hours after pylorus ligation
Procedure: The inhibitory effect of the present compounds [I] on gastric acid secretion was tested by using male Wistar rats, weighing about 200 g, in groups of five. To these rats which had been fasted overnight, the test compounds were orally administered in a series of appropriately selected doses ranging from 1 to 100 mg/kg. Then, the pyloric end of the stomach was ligated. After the lapse of 4 hours, the total acidity of gastric juice of each rat was measured. More specifically, the test compounds were suspended in a 0.5% aqueous solution of carboxymethyl cellulose and administered to the rats 30 minutes before ligation. Gastric juice was collected by sacrificing and laparotomizing each rat. The total acidity of gastric juice was determined by titrating the gastric juice with a 0.1 N aqueous solution of sodium hydroxide until a pH of 7.0 was reached. As a control experiment, the total acidity of gastric juice of an untreated group was determined in the same manner as described above. The inhibitory effect of the test compounds on gastric acid secretion was evaluated on the basis of the dose (in mg/kg) required to inhibit gastric acid secretion, i.e. the total acidity of gastric juice, by 50% (hereinafter referred to as ED50). The ED50 value of each test compound was determined by calculating the difference in total acidity between the untreated group and each treated group, dividing the difference by the total acidity of the untreated group to obtain the degree of inhibition, and constructing a dose-response curve on the basis of the data thus obtained. For purposes of comparison, the ED50 values of Omeprazole and Compounds α and β were determined in the same manner as described above and are also shown in Table 3.

[1] = Acute toxicity test (LD50); conditions: rat, in vivo, rats
Procedure: The acute toxicity (LD50) of several typical examples of the present compounds [I] (i.e., the compounds of Examples 1, 8, 13, 19, 24, 26 and 33) was tested with 5-weeks-old male Wistar rats. […] When Omeprazole was administered orally, its LD50 value was greater than 4000 mg/kg.

T1 sequence (P19156 2-1034 limits assumed): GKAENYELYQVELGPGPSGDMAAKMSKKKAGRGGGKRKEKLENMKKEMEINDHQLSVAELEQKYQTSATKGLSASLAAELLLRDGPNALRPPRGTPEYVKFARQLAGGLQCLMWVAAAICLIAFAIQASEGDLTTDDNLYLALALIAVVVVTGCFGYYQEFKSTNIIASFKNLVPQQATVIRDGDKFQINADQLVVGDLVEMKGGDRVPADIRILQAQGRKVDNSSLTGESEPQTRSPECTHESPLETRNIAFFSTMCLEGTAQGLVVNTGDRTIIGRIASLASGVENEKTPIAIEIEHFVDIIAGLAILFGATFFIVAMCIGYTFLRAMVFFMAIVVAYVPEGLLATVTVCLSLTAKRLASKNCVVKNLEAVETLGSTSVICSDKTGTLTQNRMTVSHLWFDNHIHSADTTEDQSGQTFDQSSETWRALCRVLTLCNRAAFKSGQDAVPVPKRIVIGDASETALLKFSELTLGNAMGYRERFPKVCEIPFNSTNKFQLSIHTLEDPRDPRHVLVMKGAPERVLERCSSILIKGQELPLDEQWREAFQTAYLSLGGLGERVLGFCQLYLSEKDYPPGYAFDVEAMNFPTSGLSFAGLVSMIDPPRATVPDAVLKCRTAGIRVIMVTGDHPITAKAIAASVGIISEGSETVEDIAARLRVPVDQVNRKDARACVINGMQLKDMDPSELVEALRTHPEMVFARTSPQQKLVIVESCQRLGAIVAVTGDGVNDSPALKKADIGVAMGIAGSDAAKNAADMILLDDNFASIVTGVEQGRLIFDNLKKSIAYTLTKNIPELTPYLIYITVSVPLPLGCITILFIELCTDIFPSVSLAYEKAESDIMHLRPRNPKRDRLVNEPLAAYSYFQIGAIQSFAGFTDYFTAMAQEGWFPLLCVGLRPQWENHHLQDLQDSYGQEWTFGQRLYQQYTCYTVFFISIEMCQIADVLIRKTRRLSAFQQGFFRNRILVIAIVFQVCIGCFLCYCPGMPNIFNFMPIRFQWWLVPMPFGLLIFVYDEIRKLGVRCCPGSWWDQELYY
T1 sequence (P18434 whole entry partner): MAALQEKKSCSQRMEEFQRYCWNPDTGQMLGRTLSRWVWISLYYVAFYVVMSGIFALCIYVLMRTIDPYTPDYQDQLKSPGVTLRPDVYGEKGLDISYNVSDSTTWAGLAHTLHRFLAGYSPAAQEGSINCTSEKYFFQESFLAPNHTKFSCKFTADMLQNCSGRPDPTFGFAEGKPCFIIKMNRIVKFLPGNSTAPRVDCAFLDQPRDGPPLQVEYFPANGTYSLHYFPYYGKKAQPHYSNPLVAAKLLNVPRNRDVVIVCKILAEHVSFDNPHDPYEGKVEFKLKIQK

SMILES: Cc1cnc(C[S+]([O-])c2nc3nc(OC(C)C)ccc3[nH]2)c(C)c1 (centres unmarked) [Example 10, 2-[2-(3,5-Dimethyl)pyridylmethylsulfinyl]-5-isopropyloxyimidazo[4,5-b]pyridine]
- remaining at 192 h (physchem; 75% rh): 92%
- inhibition at 1000 µM ((H^+ +K^+) ATPase): 90%
- ED50 (gastric acid secretion): 19 mg/kg

SMILES: Cc1ccnc(C[S+]([O-])c2nc3nc(OCC(F)(F)C(F)(F)C(F)(F)F)ccc3[nH]2)c1 (centres unmarked) [Example 30, 2-[2-(4-Methyl)pyridylmethylsulfinyl]-5-(2,2,3,3,4,4,4-heptafluorobutyloxy)imidazo[4,5-b]pyridine]
- remaining at 192 h (physchem; after treatment at 60° C. and 75% RH for 8 days, read-out: Storage stability, Percentage of residue): 73%
- inhibition at 1000 µM ((H^+ +K^+) ATPase): 92.1%
- ED50 (gastric acid secretion): 19 mg/kg

SMILES: Cc1cnc(C[S+]([O-])c2nc3nc(OCC4CC4)ccc3[nH]2)c(C)c1 (centres unmarked) [Example 23, 2-[2-(3,5-Dimethyl)pyridylmethylsulfinyl]-5-cyclopropylmethyloxyimidazo[4,5-b]pyridine]
- remaining at 192 h (physchem; 75% rh): 95%
- inhibition at 1000 µM ((H^+ +K^+) ATPase): 100%
- ED50 (gastric acid secretion): 12 mg/kg

SMILES: CCCCOc1ccc2[nH]c([S+]([O-])Cc3ncc(C)c(C)c3C)nc2n1 (centres unmarked) [Example 12, 2-[2-(3,4,5-Trimethyl)pyridylmethylsulfinyl]-5-n-butyloxyimidazo[4,5-b]pyridine]
- remaining at 192 h (physchem; 75% rh): 76%
- inhibition at 1000 µM ((H^+ +K^+) ATPase): 98.5%
- ED50 (gastric acid secretion): 21 mg/kg

SMILES: COc1cc(C[S+]([O-])c2nc3nc(OC(C)C)ccc3[nH]2)ncc1C (centres unmarked) [Example 16, 2-[2-(4-Methoxy-5-methyl)pyridylmethylsulfinyl]-5-isopropyloxyimidazo[4,5-b]pyridine]
- remaining at 192 h (physchem; 75% rh): 90%
- inhibition at 1000 µM ((H^+ +K^+) ATPase): 96.1%
- ED50 (gastric acid secretion): 16 mg/kg

SMILES: COc1ccc2[nH]c([S+]([O-])Cc3ncc(C)c(OC)c3C)nc2n1 (centres unmarked) [Example 2, 2-[2-(3,5-Dimethyl-4-methoxy)pyridylmethylsulfinyl]-5-methoxyimidazo[4,5-b]pyridine]
- remaining at 192 h (physchem; 75% rh): 77%
- inhibition at 1000 µM ((H^+ +K^+) ATPase): 96.6%
- ED50 (gastric acid secretion): 18 mg/kg

SMILES: COc1cc(C[S+]([O-])c2nc3nccc(OC)c3[nH]2)ncc1C (centres unmarked) [Example 7, 2-[2-(4-Methoxy-5-methyl)pyridylmethylsulfinyl]-7-methoxyimidazo[4,5-b]pyridine]
- remaining at 192 h (physchem; 75% rh): 53%
- inhibition at 1000 µM ((H^+ +K^+) ATPase): 98.8%
- ED50 (gastric acid secretion): 22 mg/kg

SMILES: COc1ccnc(C[S+]([O-])c2nc3nc(OCC4CC4)ccc3[nH]2)c1 (centres unmarked) [Example 25, 2-[2-(4-Methoxy)pyridylmethylsulfinyl]-5-cyclopropylmethyloxyimidazo[4,5-b]pyridine]
- remaining at 192 h (physchem; 75% rh): 51%
- inhibition at 1000 µM ((H^+ +K^+) ATPase): 92.9%
- ED50 (gastric acid secretion): 18 mg/kg

SMILES: COc1ccnc(C[S+]([O-])c2nc3nc(OCC(C)C)ccc3[nH]2)c1 (centres unmarked) [Example 22, 2-[2-(4-Methoxy)pyridylmethylsulfinyl]-5-isobutyloxyimidazo[4,5-b]pyridine]
- remaining at 192 h (physchem; 75% rh): 57%
- inhibition at 1000 µM ((H^+ +K^+) ATPase): 94.6%
- ED50 (gastric acid secretion): 15 mg/kg

SMILES: COc1cc(C[S+]([O-])c2nc3nc(OCC(C)C)ccc3[nH]2)ncc1C (centres unmarked) [Example 21, 2-[2-(4-Methoxy-5-methyl)pyridylmethylsulfinyl]-5-isobutyloxyimidazo[4,5-b]pyridine]
- remaining at 192 h (physchem; 75% rh): 69%
- inhibition at 1000 µM ((H^+ +K^+) ATPase): 97.4%
- ED50 (gastric acid secretion): 13 mg/kg

SMILES: CCOc1ccc2[nH]c([S+]([O-])Cc3ncc(C)cc3C)nc2n1 (centres unmarked) [Example 14, 2-[2-(3,5-Dimethyl)pyridylmethylsulfinyl]-5-ethoxyimidazo[4,5-b]pyridine]
- remaining at 192 h (physchem; 75% rh): 93%
- inhibition at 1000 µM ((H^+ +K^+) ATPase): 100%
- ED50 (gastric acid secretion): 15 mg/kg

SMILES: COc1ccc2[nH]c([S+]([O-])Cc3ncc(C)c(C)c3C)nc2n1 (centres unmarked) [Example 3, 2-[2-(3,4,5-Trimethyl)pyridylmethylsulfinyl]-5-methoxyimidazo[4,5-b]pyridine]
- remaining at 192 h (physchem; 75% rh): 99%
- inhibition at 1000 µM ((H^+ +K^+) ATPase): 100%
- ED50 (gastric acid secretion): 9 mg/kg

SMILES: CCCOc1ccc2[nH]c([S+]([O-])Cc3ncc(C)cc3C)nc2n1 (centres unmarked) [Example 18, 2-[2-(3,5-Dimethyl)pyridylmethylsulfinyl]-5-n-propyloxyimidazo[4,5-b]pyridine]
- remaining at 192 h (physchem; 75% rh): 85%
- inhibition at 1000 µM ((H^+ +K^+) ATPase): 92.3%
- ED50 (gastric acid secretion): 19 mg/kg

SMILES: COc1c(C)cnc(C[S+]([O-])c2nc3nc(OCC(C)C)ccc3[nH]2)c1C (centres unmarked) [Example 20, 2-[2-(3,5-Dimethyl-4-methoxy)pyridylmethylsulfinyl]-5-isobutyloxyimidazo[4,5-b]pyridine]
- remaining at 192 h (physchem; 75% rh): 72%
- inhibition at 1000 µM ((H^+ +K^+) ATPase): 100%
- ED50 (gastric acid secretion): 10 mg/kg

SMILES: Cc1cnc(C[S+]([O-])c2nc3nc(OCCC(C)C)ccc3[nH]2)c(C)c1 (centres unmarked) [Example 34, 2-[2-(3,5-Dimethyl)pyridylmethylsulfinyl]-5-(3-methylbutyloxy)imidazo[4,5-b]pyridine]
- remaining at 192 h (physchem; 75% rh): 76%
- inhibition at 1000 µM ((H^+ +K^+) ATPase): 98.5%
- ED50 (gastric acid secretion): 14 mg/kg

SMILES: Cc1cnc(C[S+]([O-])c2nc3nc(OCC(C)C)ccc3[nH]2)c(C)c1 (centres unmarked) [Example 19, 2-[2-(3,5-Dimethyl)pyridylmethylsulfinyl]-5-isobutyloxyimidazo[4,5-b]pyridine]
- remaining at 192 h (physchem; 75% rh): 78%
- inhibition at 1000 µM ((H^+ +K^+) ATPase): 100%
- ED50 (gastric acid secretion): 11 mg/kg
- LD50 ([1]; ip, intraperitoneal administration): > 500 mg/kg
- LD50 ([1]; oral administration): > 4000 mg/kg

SMILES: COc1c(C)cnc(C[S+]([O-])c2nc3nc(OC(C)C)ccc3[nH]2)c1C (centres unmarked) [Example 15, 2-[2-(3,5-Dimethyl-4-methoxy)pyridylmethylsulfinyl]-5-isopropyloxyimidazo[4,5-b]pyridine]
- remaining at 192 h (physchem; 75% rh): 87%
- inhibition at 1000 µM ((H^+ +K^+) ATPase): 98.5%
- ED50 (gastric acid secretion): 13 mg/kg

SMILES: COc1ccnc(C[S+]([O-])c2nc3nc(OC(C)C)ccc3[nH]2)c1 (centres unmarked) [Example 17, 2-[2-(4-Methoxy)pyridylmethylsulfinyl]-5-isopropyloxyimidazo[4,5-b]pyridine]
- remaining at 192 h (physchem; 75% rh): 75%
- inhibition at 1000 µM ((H^+ +K^+) ATPase): 93.7%
- ED50 (gastric acid secretion): 17 mg/kg

SMILES: COc1c(C)cnc(C[S+]([O-])c2nc3ncc(OCCCC4CCCC4)cc3[nH]2)c1C (centres unmarked) [Example 36, 2-[2-(3,5-Dimethyl-4-methoxy)pyridylmethylsulfinyl]-6-(3-cyclopentylpropyloxy)imidazo[4,5-b]pyridine]
- remaining at 192 h (physchem; 75% rh): 68%
- inhibition at 1000 µM ((H^+ +K^+) ATPase): 93%
- ED50 (gastric acid secretion): 19 mg/kg

SMILES: COc1ccc2[nH]c([S+]([O-])Cc3cc(OC)c(C)cn3)nc2n1 (centres unmarked) [Example 4, 2-[2-(4-Methoxy-5-methyl)pyridylmethylsulfinyl]-5-methoxyimidazo[4,5-b]pyridine]
- remaining at 192 h (physchem; 75% rh): 98%
- inhibition at 1000 µM ((H^+ +K^+) ATPase): 100%
- ED50 (gastric acid secretion): 15 mg/kg

Reference: patent US4808596A, “Imidazo[4,5-b]pyridine compounds and pharmaceutical compositions containing same” (Tokyo Tanabe Company, Ltd., priority 1986, dated 1989)
